The values below come from PubChem BioAssay (NCI).

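In this assay, cells in 96-well plates receive the compound at five concentrations for 48 hours. Endpoints are linearly interpolated between the surrounding concentrations. GI50 marks 50% less growth. TGI: concentration producing complete growth inhibition.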

Holding throughout (assay): DTP human tumour cell line panel, 48 h
The test system of assay [1] is A498 renal.
In assay [2] the test system is ACHN renal.
For assay [3], the system named is HL-60(TB) leukemia.
Assay [4] deals with HT29 colon.
The subject of assay [5] is K-562 leukemia.
For assay [6], the system named is MCF7 breast.
Assay [7] deals with NCI-H460 lung.
Assay [8] relates to OVCAR-4 ovarian.
In assay [9] the test system is RXF 393 renal.
The test system of assay [10] is SF-268 CNS.

`NC(N)=N/N=C/c1c(Cl)cccc1Cl`: the GI50 in assay [1] was 3.98 µM; in assay [2] it was 25.4 µM; in assay [3], 21.8 µM; in [4], 17 µM; in [5] it was 24.1 µM; in assay [6], 17.2 µM. The GI50 in assay [7] was 15.6 µM; in assay [8], 25.3 µM; in assay [9] it was 15.5 µM; in [10] it was 23.9 µM. Also, the TGI in [1] is 36.9 µM; in assay [2], > 100 µM; in assay [3], 50.9 µM; in [4], 43.4 µM; in assay [5], 63.1 µM; in assay [6], 41.5 µM. The TGI in assay [7] was 32.5 µM; in assay [8] it was > 100 µM; in assay [9], 35.8 µM; in assay [10], 89.4 µM.

In the case of `CCOC(=O)Nc1cc2c(c(N)n1)N=C(c1ccccc1)CO2`, the GI50 in assay [1] is 0.147 µM; in assay [2], 0.986 µM; in assay [3] it was 0.0303 µM; in [4] it was 0.047 µM; in assay [5], 0.0336 µM; in [6], 0.1 µM. Besides, the GI50 in assay [7] is 0.0659 µM; in assay [8] it was 2.46 µM; in assay [9] it was 0.275 µM; in assay [10], 0.325 µM. Moreover, the TGI is 6.92 µM in assay [1]; 31.7 µM in assay [2]; 10.9 µM in assay [4]; 34 µM in assay [5]; 21 µM in [6]; 5.26 µM in assay [7]. Moreover, the TGI in assay [8] was 36.4 µM; in [9] it was 32.1 µM; in assay [10] it was 15.8 µM.

As for `COC(=O)[C@]12CC[C@@H](C)[C@H](C)[C@@H]1C1=CC[C@@H]3[C@@]4(C)C[C@@H](O)[C@H](O)[C@@](C)(CO)C4=CC[C@@]3(C)[C@]1(C)CC2`, the GI50 is 19 µM in [1]; 17.7 µM in assay [2]; 16.8 µM in assay [3]; 15.9 µM in assay [4]; 17.5 µM in [5]; 14.2 µM in assay [6]. Besides, the GI50 is 17.1 µM in [7], 15.9 µM in assay [8], 16.9 µM in assay [9] and 17.4 µM in [10]. Moreover, the TGI was 34 µM in assay [1]; 33.8 µM in assay [2]; 34.7 µM in assay [3]; 33.5 µM in [4]; 36.6 µM in assay [5]; 31.2 µM in assay [6]. For the same molecule, the TGI in assay [7] stood at 33.8 µM; in assay [8], 32.8 µM; in [9], 34 µM; in assay [10] it was 34.8 µM.

For `O=C(Nc1cccc(C(F)(F)F)c1)c1ccc(NC2=C(Cl)C(=O)N(Cc3ccc(Cl)cc3Cl)C2=O)cc1`, the GI50 in assay [1] is 6.51 µM; in assay [2], 11.9 µM; in assay [3] it was 2.72 µM; in assay [4], 3.82 µM; in [5], 1.83 µM; in assay [6], 2.15 µM. Also, the GI50 in assay [7] was 8.38 µM; in [8] it was 11.1 µM; in assay [9] it was 4.76 µM; in assay [10], 11 µM. The TGI in assay [1] worked out at 25.9 µM; in assay [2] it was 46.1 µM; in assay [3] it was 12.4 µM; in [4] it was 36.8 µM; in [5], 4.49 µM; in assay [6], 4.71 µM. The TGI in assay [7] came out at 31 µM; in assay [8], 42.6 µM; in assay [9], 28.3 µM; in [10], 35.5 µM.

As for `CNCCOC(=O)/C=C1\CC[C@H]2[C@@H]([C@@H](O)C(=O)[C@@H]3[C@]2(C)CC[C@H](O)[C@]3(C)C(=O)OC)[C@H]1C`, the GI50 in assay [1] was 0.262 µM; in assay [2] it was 0.25 µM; in assay [3], 0.244 µM; in assay [4] it was 0.443 µM; in assay [5], 0.412 µM; in [6], 0.368 µM. The GI50 in assay [7] was 0.201 µM; in assay [8] it was 0.222 µM; in [9], 0.205 µM; in assay [10] it was 0.233 µM. In addition, the TGI in assay [1] was determined as 2.53 µM; in assay [2], 0.785 µM; in assay [3] it was 0.687 µM; in assay [4], 1.58 µM; in [5], 2.37 µM; in assay [6] it was 1.7 µM. The TGI was 0.429 µM in assay [7], 0.484 µM in assay [8], 0.579 µM in assay [9] and 0.59 µM in assay [10].

On to `NNC(=O)CNc1cccc(Br)c1`, for which the TGI in assay [1], in assay [2], in [3], in assay [4], in assay [5] and in assay [6] was > 100 µM throughout. Further, the TGI in assay [7], in assay [8], in assay [9] and in [10] was > 100 µM throughout.

In the case of `N#C/C(=C\c1ccc2ccccc2c1)C(=O)c1ccccc1`, the TGI in assay [1] was > 100 µM; in [2], > 100 µM; in assay [3], 71.9 µM; in [4] it was > 100 µM; in assay [5] it was 99.2 µM; in [6], > 100 µM. Also, the TGI is > 100 µM in [7], > 100 µM in assay [8], > 55.4 µM in assay [9] and > 100 µM in [10].

For `Cc1nc(N)sc1N=Nc1ccccc1Br`, the TGI is 43.2 µM in assay [1]; > 86 µM in [2]; > 75.9 µM in [3]; 59 µM in assay [4]; > 100 µM in assay [5]; 70.2 µM in assay [6]. Further, the TGI in assay [7] was > 67.4 µM; in assay [8] it was > 61.9 µM; in assay [9] it was 43.6 µM; in assay [10], 40.4 µM.

For the molecule `Cc1c(N(C)C)ccc2c(=O)c3cccc(CC(=O)O)c3oc12`, the TGI in [1], in assay [2], in assay [3], in assay [4], in [5] and in assay [6] was > 100 µM throughout. For the same molecule, the TGI in assay [7], in assay [8], in [9] and in [10] was > 100 µM each time.

Turning to `CN(C)CC[C@H](CSc1ccccc1)Nc1ccc(S(=O)(=O)NC(=O)c2ccc(N3CCN(Cc4ccccc4-c4ccc(Cl)cc4)CC3)cc2)cc1[N+](=O)[O-]`, the GI50 in assay [1] was 0.0971 µM; in [2], 4.96 µM; in [3], 0.35 µM; in assay [4], 2.17 µM; in assay [5], 5.03 µM; in assay [6], 3 µM. In addition, the GI50 was 3.52 µM in assay [7], 3.04 µM in [8], 0.918 µM in assay [9] and 5.84 µM in [10]. Further, the TGI in [1] was 0.818 µM; in assay [2] it was > 50.6 µM; in assay [3] it was 4.56 µM; in assay [4], 5.02 µM; in assay [5] it was > 100 µM; in assay [6] it was > 41.3 µM. The TGI in assay [7] is 23.9 µM; in assay [8], > 29.6 µM; in [9] it was 4.27 µM; in assay [10] it was > 100 µM.

Consider `O=C(Cc1ccc(F)c(Cl)c1)Nc1cc(C2(C(F)(F)F)CC2)nn1CC1CCCCC1`, for which the GI50 in assay [1] was 1.52 µM; in [2], 4.22 µM; in [3], 3.27 µM; in assay [4] it was 3.96 µM; in assay [5] it was 4.28 µM; in assay [6] it was 4.01 µM. Besides, the GI50 in [7] was 3.28 µM; in assay [8] it was 3.27 µM; in [9], 2.37 µM; in assay [10], 3.95 µM. Further, the TGI is 4.89 µM in assay [1]; 13.9 µM in assay [2]; 7.79 µM in assay [3]; > 15 µM in assay [4]; > 15 µM in assay [5]; > 15 µM in assay [6]. Moreover, the TGI in assay [7] was 8.41 µM; in [8] it was > 15 µM; in [9], 10.1 µM; in [10], > 15 µM.

On to `NC(N)=NCCCC(=O)O`, for which the TGI in assay [1], in [2], in assay [3], in [4], in assay [5] and in assay [6] was > 100 µM each time. In addition, the TGI in assay [7], in [8], in [9] and in assay [10] was > 100 µM throughout.

Take `CCn1c(O)c(/C=N/NC(=O)C(C)c2ccc(CC(C)C)cc2)sc1=S` (centres undefined): the GI50 is 0.243 µM in [1]; 0.813 µM in assay [2]; 0.312 µM in assay [3]; 2.42 µM in assay [4]; 0.282 µM in [5]; 0.346 µM in assay [6]. The GI50 was 0.353 µM in [7], 1.08 µM in [8], 0.222 µM in assay [9] and 1.63 µM in assay [10]. Besides, the TGI in [1] is 0.87 µM; in assay [2], > 38.8 µM; in assay [3] it was 1.52 µM; in assay [4], > 37.8 µM; in assay [5] it was > 48.4 µM; in [6], > 35.1 µM. Moreover, the TGI in [7] is 10.9 µM; in [8] it was > 52 µM; in assay [9], 0.654 µM; in [10], > 43.4 µM.

A word on the GI50: it is the concentration at which growth is held to half of that of the control. As a reminder, the TGI is the concentration giving total growth inhibition. Low readings indicate more potent growth arrest, high ones less potent growth arrest.
